Measured values taken from patent US12528786B2, “Plasma kallikrein inhibitors” (Merck Sharp & Dohme LLC, priority 2020, dated 2026).

The compounds below were run against T1, Human plasma kallikrein (Homo sapiens, UniProt P03952) (assay: Kallikrein Assay (fluorogenic substrate hydrolysis, AFC release)). Settings: purified Human plasma kallikrein 0.5 nM; substrate Acetyl-K—P—R-AFC 100 mM; 50 mM HEPES pH 7.4.
T1 construct: yields a heavy chain (371 amino acids) and a light chain (248 amino acids); purchased Enzyme Research Laboratories
T1 sequence (P03952 391-638 limits assumed): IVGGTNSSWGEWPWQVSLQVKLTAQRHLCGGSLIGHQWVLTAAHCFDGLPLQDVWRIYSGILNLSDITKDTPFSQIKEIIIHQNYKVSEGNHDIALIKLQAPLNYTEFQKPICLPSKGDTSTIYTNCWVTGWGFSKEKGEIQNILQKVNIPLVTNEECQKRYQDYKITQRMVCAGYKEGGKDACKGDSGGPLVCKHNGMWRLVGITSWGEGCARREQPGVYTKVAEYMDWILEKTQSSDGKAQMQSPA
T1 sequence (P03952 20-390 partner limits assumed): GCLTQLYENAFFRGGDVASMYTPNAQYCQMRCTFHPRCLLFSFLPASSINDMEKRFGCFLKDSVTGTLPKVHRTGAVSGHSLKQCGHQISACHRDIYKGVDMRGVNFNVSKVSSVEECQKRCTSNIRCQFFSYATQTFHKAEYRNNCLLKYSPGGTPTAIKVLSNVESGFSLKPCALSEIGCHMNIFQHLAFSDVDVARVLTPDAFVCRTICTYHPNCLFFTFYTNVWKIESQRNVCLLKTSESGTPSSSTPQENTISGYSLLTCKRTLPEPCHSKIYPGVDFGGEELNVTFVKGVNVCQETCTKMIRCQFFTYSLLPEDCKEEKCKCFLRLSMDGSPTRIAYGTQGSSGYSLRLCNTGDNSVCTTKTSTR
Format: biochemical
Method in brief: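 Enzyme–inhibitor equilibrated before substrate dilution to ≤0.2 Km; human plasma kallikrein at 0.5 nM final, Acetyl-K-P-R-AFC substrate, HEPES pH 7.4 buffer with NaCl, CaCl2, PEG 8000, at room temperature or 37° C. Linear-phase fluorescence rate gives percent inhibition, four-parameter logistic IC50, then Cheng-Prusoff Ki.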

Compound	IC50
CC(c1ncc(N2C[C@H]3C[C@H]3C2=O)cc1F)n1cc(C(=O)N[C@H]2C[C@@H](c3cc(Cl)ccc3C#N)C2)nn1 (single isomer, unassigned) [Example 92, N-((cis)-3-(5-chloro-2-cyanophenyl)cyclobutyl)-1-((R or S)-1-(3-fluoro-5-((1R,5S)-2-oxo-3-azabicyclo[3.1.0]hexan-3-yl)pyridin-2-yl)ethyl)-1H-1,2,3-triazole-4-carboxamide]	38.1 nM
Cc1c(C(C)n2cc(C(=O)NC3CC(c4cc(Cl)ccc4C#N)C3)cn2)cnc(N2C[C@H]3C[C@H]3C2=O)c1Cl (single isomer, unassigned) [Example 168]	0.1 nM
Cc1cc([C@H](C)n2cc(C(=O)N[C@H]3C[C@@H](c4cc(Cl)ccc4C#N)C3)cn2)cnc1N1C[C@H]2C[C@H]2C1=O (single isomer, unassigned) [Example 5]	0.6 nM
Cc1c(C(C)n2cc(C(=O)NC3CC(c4cccc(Cl)c4)C3O)nn2)nnc(N2C[C@H]3C[C@H]3C2=O)c1C (single isomer, unassigned) [Example 131, N-((1R,2R,3R or 1S,2S,3S))-3-(3-chlorophenyl)-2-hydroxycyclobutyl)-1-((S or R)-1-(4,5-dimethyl-6-((1R,5S)-2-oxo-3-azabicyclo[3.1.0]hexan-3-yl)pyridazin-3-yl)ethyl)-1H-1,2,3-triazole-4-carboxamide]	281 nM
Cc1c([C@H](C)n2cc(C(=O)N[C@H]3C[C@@](C)(c4cc(Cl)ccc4C(N)=O)C3)nn2)cnc(N2C[C@H]3C[C@H]3C2=O)c1C [Example 142, N-((cis)-3-(2-carbamoyl-5-chlorophenyl)-3-methylcyclobutyl)-1-((S)-1-(4,5-dimethyl-6-((1R,5S)-2-oxo-3-azabicyclo[3.1.0]hexan-3-yl)pyridin-3-yl)ethyl)-1H-1,2,3-triazole-4-carboxamide]	0.4 nM
Cc1ccc(C#N)c([C@H]2C[C@@H](NC(=O)c3cn(C(C)c4cnc(N5C[C@H]6C[C@H]6C5=O)c(C)n4)nn3)C2)n1 (single isomer, unassigned) [Example 115, N-((cis)-3-(3-cyano-6-methylpyridin-2-yl)cyclobutyl)-1-((R or S)-1-(6-methyl-5-((1R,5S)-2-oxo-3-azabicyclo[3.1.0]hexan-3-yl)pyrazin-2-yl)ethyl)-1H-1,2,3-triazole-4-carboxamide]	22.4 nM
Cc1c(C(C)n2cc(C(=O)NC3CC(c4cccc(Cl)c4)C3O)nn2)nnc(N2C[C@H]3C[C@H]3C2=O)c1C (single isomer, unassigned) [Example 130, N-((1S,2S,3S or 1R,2R,3R))-3-(3-chlorophenyl)-2-hydroxycyclobutyl)-1-((R or S)-1-(4,5-dimethyl-6-((1R,5S)-2-oxo-3-azabicyclo[3.1.0]hexan-3-yl)pyridazin-3-yl)ethyl)-1H-1,2,3-triazole-4-carboxamide]	8.5 nM
Cc1c([C@H](C)n2cc(C(=O)NC3CC(c4cccc(Cl)c4)C3O)nn2)cnc(N2C[C@H]3C[C@H]3C2=O)c1C (single isomer, unassigned) [Example 152, N-((1S,2S,3S or 1R,2R,3R))-3-(3-chlorophenyl)-2-hydroxycyclobutyl)-1-((S)-1-(4,5-dimethyl-6-((1R,5S)-2-oxo-3-azabicyclo[3.1.0]hexan-3-yl)pyridin-3-yl)ethyl)-1H-1,2,3-triazole-4-carboxamide]	78 nM
COc1c(N2C[C@H]3C[C@H]3C2=O)ncc(C(C)n2cc(C(=O)N[C@H]3C[C@@H](c4cc(Cl)ccc4C#N)C3)cn2)c1C (single isomer, unassigned) [Example 44, N-((cis)-3-(5-chloro-2-cyanophenyl)cyclobutyl)-1-((S or R)-1-(5-methoxy-4-methyl-6-((1R,5S)-2-oxo-3-azabicyclo[3.1.0]hexan-3-yl)pyridin-3-yl)ethyl)-1H-pyrazole-4-carboxamide]	0.2 nM
N#Cc1ccc(Cl)cc1[C@H]1C[C@@H](NC(=O)c2cn([C@H](CO)c3ccc(N4C[C@H]5C[C@H]5C4=O)nc3)nn2)C1 (single isomer, unassigned) [Example 155]	28 nM
Cc1cc(N2C[C@H]3C[C@H]3C2=O)nnc1C(C)n1cc(C(=O)N[C@H]2C[C@@H](c3cc(Cl)ccc3C#N)C2)nn1 (single isomer, unassigned) [Example 117, N-((cis)-3-(5-chloro-2-cyanophenyl)cyclobutyl)-1-((R or S)-1-(4-methyl-6-((1R,5S)-2-oxo-3-azabicyclo[3.1.0]hexan-3-yl)pyridazin-3-yl)ethyl)-1H-1,2,3-triazole-4-carboxamide]	968 nM

The remaining lines, values ahead:

IC50	Compound
2.5 nM	Cc1ccc(C#N)c([C@H]2C[C@@H](NC(=O)c3cn(C(C)c4cnc(N5C[C@H]6C[C@H]6C5=O)c(C)c4)nn3)C2)c1 (single isomer, unassigned) [Example 133, N-((cis)-3-(2-cyano-5-methylphenyl)cyclobutyl)-1-((R or S)-1-(5-methyl-6-((1R,5S)-2-oxo-3-azabicyclo[3.1.0]hexan-3-yl)pyridin-3-yl)ethyl)-1H-1,2,3-triazole-4-carboxamide]
0.6 nM	Cc1cc(N2C[C@H]3C[C@H]3C2=O)ncc1C(C)n1cc(C(=O)N[C@H]2C[C@@H](c3cc(Cl)ccc3C#N)C2)nn1 (single isomer, unassigned) [Example 59, N-((cis)-3-(5-chloro-2-cyanophenyl)cyclobutyl)-1-((R or S)-1-(4-methyl-6-((1R,5S)-2-oxo-3-azabicyclo[3.1.0]hexan-3-yl)pyridin-3-yl)ethyl)-1H-1,2,3-triazole-4-carboxamide]
10.7 nM	Cc1nc(N2C[C@H]3C[C@H]3C2=O)ccc1C(C)n1cc(C(=O)N[C@H]2C[C@@H](c3cc(Cl)ccc3C#N)C2)nn1 (single isomer, unassigned) [Example 95, N-((cis)-3-(5-chloro-2-cyanophenyl)cyclobutyl)-1-((S or R)-1-(2-methyl-6-((1R,5S)-2-oxo-3-azabicyclo[3.1.0]hexan-3-yl)pyridin-3-yl)ethyl)-1H-1,2,3-triazole-4-carboxamide]
6.1 nM	Cc1ccc(C#N)c([C@H]2C[C@@H](NC(=O)c3cn(C(C)c4cnc(N5C[C@H]6C[C@H]6C5=O)c(C)c4C)nn3)C2)c1 (single isomer, unassigned) [Example 114, N-((cis)-3-(2-cyano-5-methylphenyl)cyclobutyl)-1-((S or R)-1-(4,5-dimethyl-6-((1R,5S)-2-oxo-3-azabicyclo[3.1.0]hexan-3-yl)pyridin-3-yl)ethyl)-1H-1,2,3-triazole-4-carboxamide]
80 nM	Cc1ccc(C#N)c([C@H]2C[C@@H](NC(=O)c3cn(C(C)c4cnc(N5C[C@H]6C[C@H]6C5=O)c(F)c4C)nn3)C2)n1 (single isomer, unassigned) [Example 135, N-((cis)-3-(3-cyano-6-methylpyridin-2-yl)cyclobutyl)-1-((R or S)-1-(5-fluoro-4-methyl-6-((1R,5S)-2-oxo-3-azabicyclo[3.1.0]hexan-3-yl)pyridin-3-yl)ethyl)-1H-1,2,3-triazole-4-carboxamide]
3 nM	COc1nc(C(C)n2cc(C(=O)N[C@H]3C[C@@H](c4cc(Cl)ccc4C#N)C3)nn2)cnc1N1C[C@H]2C[C@H]2C1=O (single isomer, unassigned) [Example 122, N-((cis)-3-(5-chloro-2-cyanophenyl)cyclobutyl)-1-((S or R)-1-(6-methoxy-5-((1R,5S)-2-oxo-3-azabicyclo[3.1.0]hexan-3-yl)pyrazin-2-yl)ethyl)-1H-1,2,3-triazole-4-carboxamide]
6.7 nM	COc1nc(C(C)n2cc(C(=O)N[C@H]3C[C@@H](c4cc(Cl)ccc4C#N)C3)nn2)cnc1N1C[C@H]2C[C@H]2C1=O (single isomer, unassigned) [Example 121, N-((cis)-3-(5-chloro-2-cyanophenyl)cyclobutyl)-1-((R or S)-1-(6-methoxy-5-((1R,5S)-2-oxo-3-azabicyclo[3.1.0]hexan-3-yl)pyrazin-2-yl)ethyl)-1H-1,2,3-triazole-4-carboxamide]
0.2 nM	Cc1c(C(C)n2cc(C(=O)N[C@H]3C[C@@H](c4cc(Cl)ccc4C#N)C3)nn2)cnc(N2C[C@H]3C[C@H]3C2=O)c1F (single isomer, unassigned) [Example 96, N-((cis)-3-(5-chloro-2-cyanophenyl)cyclobutyl)-1-((R or S)-1-(5-fluoro-4-methyl-6-((1R,5S)-2-oxo-3-azabicyclo[3.1.0]hexan-3-yl)pyridin-3-yl)ethyl)-1H-1,2,3-triazole-4-carboxamide]
2.3 nM	Cc1ccc(C#N)c([C@H]2C[C@@H](NC(=O)c3cn(C(C)c4nnc(N5C[C@H]6C[C@H]6C5=O)c(C)c4C)nn3)C2)n1 (single isomer, unassigned) [Example 128, N-((cis)-3-(3-cyano-6-methylpyridin-2-yl)cyclobutyl)-1-((S or R)-1-(4,5-dimethyl-6-((1R,5S)-2-oxo-3-azabicyclo[3.1.0]hexan-3-yl)pyridazin-3-yl)ethyl)-1H-1,2,3-triazole-4-carboxamide]
1.5 nM	Cc1cc(N2C[C@H]3C[C@H]3C2=O)cnc1C(C)n1cc(C(=O)N[C@H]2C[C@@H](c3cc(Cl)ccc3C#N)C2)nn1 (single isomer, unassigned) [Example 91, N-((cis)-3-(5-chloro-2-cyanophenyl)cyclobutyl)-1-((S or R)-1-(3-methyl-5-((1R,5S)-2-oxo-3-azabicyclo[3.1.0]hexan-3-yl)pyridin-2-yl)ethyl)-1H-1,2,3-triazole-4-carboxamide]
0.4 nM	Cc1ccc(C#N)c([C@H]2C[C@@H](NC(=O)c3cn(C(C)c4cnc(N5C[C@H]6C[C@H]6C5=O)c(C)c4C)nn3)C2)c1 (single isomer, unassigned) [Example 113, N-((cis)-3-(2-cyano-5-methylphenyl)cyclobutyl)-1-((R or S)-1-(4,5-dimethyl-6-((1R,5S)-2-oxo-3-azabicyclo[3.1.0]hexan-3-yl)pyridin-3-yl)ethyl)-1H-1,2,3-triazole-4-carboxamide]
